According to US20240174648A1, “Small Molecule Compound” (Technoderma Medicines Pte Ltd, priority 2019, published 2024):

Assays:
Assay type in all cases: biochemical
Tyk2 = Tyk2 (Homo sapiens, UniProt P29597); test: JAK kinase inhibition assay (EZ Reader, peptide substrate phosphorylation) - Tyk2; details: Tyk2 kinase 1 nM; 8 concentration points, max 10 μM
In short: (§1)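 Microfluidic mobility-shift detection of fluorescent peptide substrate phosphorylation, with JAK1 at 20 nM and JAK2, JAK3 and Tyk2 each at 1 nM final, in 20 mM HEPES pH 7.4, 10 mM MgCl2, 1 mM DTT. Reactions run at room temperature to 20–30% conversion, then EDTA-stopped. Compounds tested at 8 three-fold dilutions from 10 μM top final; IC50 from conversion curves.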

JAK3 = target: T1, JAK3 (Homo sapiens, UniProt P52333); test: JAK kinase inhibition assay (EZ Reader, peptide substrate phosphorylation) - JAK3; details: JAK3 kinase 1 nM; 8 concentration points, max 10 μM
T1 sequence (P52333 1-1124): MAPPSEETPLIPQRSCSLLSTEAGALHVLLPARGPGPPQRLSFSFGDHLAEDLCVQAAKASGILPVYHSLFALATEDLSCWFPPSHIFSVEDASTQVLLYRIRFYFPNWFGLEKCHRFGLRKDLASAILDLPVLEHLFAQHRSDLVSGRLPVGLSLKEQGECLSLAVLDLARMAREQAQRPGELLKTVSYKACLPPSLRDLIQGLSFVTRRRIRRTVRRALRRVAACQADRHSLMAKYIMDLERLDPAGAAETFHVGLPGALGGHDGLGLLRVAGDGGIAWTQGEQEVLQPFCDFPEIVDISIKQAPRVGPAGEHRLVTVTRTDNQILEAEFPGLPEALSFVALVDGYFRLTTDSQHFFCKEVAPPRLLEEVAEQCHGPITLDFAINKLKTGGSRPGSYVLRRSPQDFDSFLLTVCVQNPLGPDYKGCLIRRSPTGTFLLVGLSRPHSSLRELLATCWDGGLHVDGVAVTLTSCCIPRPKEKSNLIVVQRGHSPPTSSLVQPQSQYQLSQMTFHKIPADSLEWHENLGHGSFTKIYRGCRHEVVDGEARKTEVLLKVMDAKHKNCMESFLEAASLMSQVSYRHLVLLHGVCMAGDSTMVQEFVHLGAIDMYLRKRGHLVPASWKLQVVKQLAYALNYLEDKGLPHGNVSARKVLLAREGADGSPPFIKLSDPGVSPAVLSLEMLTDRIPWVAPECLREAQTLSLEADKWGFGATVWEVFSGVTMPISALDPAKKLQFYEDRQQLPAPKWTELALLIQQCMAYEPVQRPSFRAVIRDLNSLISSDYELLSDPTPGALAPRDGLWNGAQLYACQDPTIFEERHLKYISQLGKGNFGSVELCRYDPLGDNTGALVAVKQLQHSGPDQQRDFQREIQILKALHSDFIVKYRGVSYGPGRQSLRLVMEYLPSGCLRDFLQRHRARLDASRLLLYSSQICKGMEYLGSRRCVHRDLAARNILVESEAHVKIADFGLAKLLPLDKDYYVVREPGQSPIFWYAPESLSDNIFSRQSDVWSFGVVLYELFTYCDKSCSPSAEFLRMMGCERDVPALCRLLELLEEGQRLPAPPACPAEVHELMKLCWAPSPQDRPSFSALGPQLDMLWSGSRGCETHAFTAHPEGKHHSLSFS
Text: (§2) Assay for Identifying Inhibitory Effects of Compounds on JAK Kinases
(§3) Janus kinases (JAK), including JAK1, JAK2, JAK3 and Tyk2, transduce a cytokine-mediated signal through a JAK-STAT pathway. The kinases are 120-140 kDa in size and have 7 determined homology regions: JH1 to JH7. JH1 is an important region for enzymatic activity and has typical characteristics of tyrosine kinases. Phosphorylation of tyrosine leads to a change in the conformation of JAK protein, thereby promoting binding of substrate. The JAK-STAT system includes three main parts: receptors penetrating a cell membrane, Janus kinases binding to the receptors, and signal transducers and activators of transcription (STAT) for transmitting signals to a nucleus and DNA. When cytokines bind to receptors, JAK phosphorylates the receptors and attracts STAT proteins. The STAT proteins are also phosphorylated and combined with one another to form dimers. The dimers enter the nucleus and bind to DNA, thereby leading to gene transcription.
(§4) EZ Reader from PerkinElmer can be used to detect the phosphorylation of polypeptide substrates catalyzed by kinases. The device is based on microfluidic techniques, and can directly detect fluorescently labeled substrates and products. The separation step is achieved by controlling the pressure and electric field strength in the microfluidic chip. In kinase assays, a product conversion ratio is usually controlled to be 20-30%. A biological test is used to identify inhibitory effects of compounds on JAKs.
(§5) Compound powder was dissolved in DMSO, sealed and stored in a freezer under −20° C. The in-house compound Ref1 was used as a positive control for JAK1, JAK2 and Tyk2 tests, and Ref2 was used as a positive control for JAK3 tests.
(§6) S2.8. Assay buffer: 20 mM HEPES buffer, pH 7.4, 10 mM magnesium chloride, 0.01% bovine serum albumin BSA, 0.0005% Tween-20 and 1 mM dithiothreitol solution.
(§7) S2.9. Stop buffer: 180 mM HEPES buffer, 20 mM ethylenediaminetetraacetic acid and 0.2% coating reagent 3.
(§8) S2.10. Separation buffer: 100 mM HEPES buffer, 10 mM ethylenediaminetetraacetic acid, 0.0005% Tween 20, 0.1% coating reagent 3 and 1% dimethyl sulfoxide.
The compound was dissolved in dimethyl sulfoxide and diluted to 10 mM concentration, a certain volume of solution was taken and diluted to 0.6 mM concentration, 10 μL of the 0.6 mM dilution was added to a 384-well microplate, and then was diluted 3-fold with a total of 8 concentration points. […]
Positive control (HPE1): Ref2, final concentration: 10 μM
(§9) Negative control (ZPE): DMSO, final content: 1.6%
(§10) Compounds: maximum final concentration: 10 μM; 3-fold dilution, 8 concentration points and 2 duplicates.
(§11) S4.1. 250 nL of the compound was added to each well of the assay microplate by using ECHO, and centrifuged at 1000 rpm for 1 minute.
(§12) S4.2. 5 μL of the assay buffer was added and agitated for a few seconds to fully dissolve the compound.
(§13) S4.3. 5 μL of 3× substrate solution and 5 μL of 3× kinase solution were added and centrifuged at 800 rpm for 1 minute.
(§14) S4.4. Final concentrations of JAK1, JAK2, JAK3 and Tyk2 kinases in the reaction system were 20 nM, 1 nM, 1 nM and 1 nM respectively.
(§15) S4.5. Incubation at room temperature, where kinases had time differences, and different batches of kinases had time differences.
(§16) S4.6. When 20%-30% of the reaction completed, 15 μL of stop buffer was added to stop the reaction, and centrifuged at 1000 rpm for 2 minutes.
(§17) S4.7. The microplates were placed on EZ Reader for reading.
(§18) S4.8. Readings on EZ Reader were calculated by using a peak height, where product conversion ratio (%)=product/(product+substrate)*100.
(§19) 5. Data Processing: IC50 calculation
(§20) A graphing software Xlfit was used to form a concentration curve of the test compound, and an IC50 value was calculated.
(§21) “A” means “≥10 μM”; “B” means “≥1 μM and <10 μM”; “C” means “≥0.1 μM and <1 μM”; and “D” means “<0.1 μM”.

JAK1 = JAK1 (Homo sapiens, UniProt P23458); test: JAK kinase inhibition assay (EZ Reader, peptide substrate phosphorylation) - JAK1; details: JAK1 kinase 20 nM; 8 concentration points, max 10 μM
In short: as §1

JAK2 = JAK2 (Homo sapiens, UniProt O60674); test: JAK kinase inhibition assay (EZ Reader, peptide substrate phosphorylation) - JAK2; details: JAK2 kinase 1 nM; 8 concentration points, max 10 μM
Text: as §2, §3, §4, §5, §6, §7, §8
The compound was dissolved in dimethyl sulfoxide and diluted to 10 mM concentration, a certain volume of solution was taken and diluted to 0.6 mM concentration, 10 μL of the 0.6 mM dilution was added to a 384-well microplate, and then was diluted 3-fold with a total of 8 concentration points.
Positive control (HPE1): Ref1, final concentration: 10 μM […]
as §9, §10, §11, §12, §13, §14, §15, §16, §17, §18, §19, §20, §21

JAK2, sequence (O60674 whole entry): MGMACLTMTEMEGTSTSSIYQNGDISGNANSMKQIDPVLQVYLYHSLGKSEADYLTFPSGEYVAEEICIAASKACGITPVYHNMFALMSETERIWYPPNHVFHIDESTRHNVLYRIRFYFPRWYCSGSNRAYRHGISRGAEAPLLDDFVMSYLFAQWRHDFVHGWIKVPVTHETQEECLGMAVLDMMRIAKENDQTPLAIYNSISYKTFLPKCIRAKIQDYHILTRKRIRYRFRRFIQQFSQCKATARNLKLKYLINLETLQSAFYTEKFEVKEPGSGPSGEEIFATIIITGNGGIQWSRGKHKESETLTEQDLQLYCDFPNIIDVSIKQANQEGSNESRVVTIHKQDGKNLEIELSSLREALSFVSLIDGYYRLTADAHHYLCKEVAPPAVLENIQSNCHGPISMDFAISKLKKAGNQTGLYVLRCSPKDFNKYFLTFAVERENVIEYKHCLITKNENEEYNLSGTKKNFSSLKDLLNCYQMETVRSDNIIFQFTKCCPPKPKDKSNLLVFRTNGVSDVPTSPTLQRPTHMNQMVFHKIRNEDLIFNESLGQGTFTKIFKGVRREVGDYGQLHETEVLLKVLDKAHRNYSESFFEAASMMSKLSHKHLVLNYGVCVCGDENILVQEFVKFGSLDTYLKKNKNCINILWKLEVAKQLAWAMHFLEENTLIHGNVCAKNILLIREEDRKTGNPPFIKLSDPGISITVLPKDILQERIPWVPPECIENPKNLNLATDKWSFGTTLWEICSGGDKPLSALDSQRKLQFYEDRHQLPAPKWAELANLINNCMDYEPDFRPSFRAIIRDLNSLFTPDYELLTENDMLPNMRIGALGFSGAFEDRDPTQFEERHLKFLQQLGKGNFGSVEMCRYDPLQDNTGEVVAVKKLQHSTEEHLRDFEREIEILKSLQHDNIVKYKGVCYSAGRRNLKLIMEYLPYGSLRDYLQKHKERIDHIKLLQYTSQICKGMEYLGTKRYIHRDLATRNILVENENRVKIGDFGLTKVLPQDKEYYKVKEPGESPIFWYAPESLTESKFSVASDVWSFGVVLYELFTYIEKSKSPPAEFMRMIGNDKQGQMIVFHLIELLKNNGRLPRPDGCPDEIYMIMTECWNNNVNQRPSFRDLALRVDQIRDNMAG
Tyk2, sequence (P29597 whole entry): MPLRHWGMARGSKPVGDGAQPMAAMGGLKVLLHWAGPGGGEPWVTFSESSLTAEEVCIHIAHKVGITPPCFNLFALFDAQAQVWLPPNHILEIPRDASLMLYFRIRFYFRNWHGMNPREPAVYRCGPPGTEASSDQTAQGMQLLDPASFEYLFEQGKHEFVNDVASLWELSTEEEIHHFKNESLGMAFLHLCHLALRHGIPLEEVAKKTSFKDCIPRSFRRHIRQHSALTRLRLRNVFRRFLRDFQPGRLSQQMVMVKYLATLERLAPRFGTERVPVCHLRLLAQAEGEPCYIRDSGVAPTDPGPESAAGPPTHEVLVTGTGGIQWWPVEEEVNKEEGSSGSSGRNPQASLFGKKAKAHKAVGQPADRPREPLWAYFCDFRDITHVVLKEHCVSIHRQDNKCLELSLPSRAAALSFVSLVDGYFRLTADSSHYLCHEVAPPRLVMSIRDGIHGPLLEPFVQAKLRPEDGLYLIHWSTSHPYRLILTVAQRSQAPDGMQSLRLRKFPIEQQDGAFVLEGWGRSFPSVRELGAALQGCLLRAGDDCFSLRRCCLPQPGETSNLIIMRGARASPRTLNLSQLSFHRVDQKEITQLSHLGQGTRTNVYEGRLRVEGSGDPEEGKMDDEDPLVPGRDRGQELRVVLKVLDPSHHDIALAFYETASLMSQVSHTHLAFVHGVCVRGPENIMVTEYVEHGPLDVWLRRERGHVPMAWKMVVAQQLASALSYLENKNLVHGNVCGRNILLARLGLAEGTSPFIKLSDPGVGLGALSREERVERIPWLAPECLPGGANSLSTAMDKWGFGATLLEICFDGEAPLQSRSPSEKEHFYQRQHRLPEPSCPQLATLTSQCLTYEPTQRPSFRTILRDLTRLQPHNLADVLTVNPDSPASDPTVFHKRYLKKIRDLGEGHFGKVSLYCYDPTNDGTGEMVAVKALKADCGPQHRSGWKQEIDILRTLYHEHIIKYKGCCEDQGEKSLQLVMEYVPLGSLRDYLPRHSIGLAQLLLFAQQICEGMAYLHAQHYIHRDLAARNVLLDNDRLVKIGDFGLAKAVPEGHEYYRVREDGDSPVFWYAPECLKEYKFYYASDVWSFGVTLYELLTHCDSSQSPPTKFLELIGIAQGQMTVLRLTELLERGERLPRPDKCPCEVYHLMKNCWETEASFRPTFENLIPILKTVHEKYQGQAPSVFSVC
JAK1, sequence (P23458 whole entry): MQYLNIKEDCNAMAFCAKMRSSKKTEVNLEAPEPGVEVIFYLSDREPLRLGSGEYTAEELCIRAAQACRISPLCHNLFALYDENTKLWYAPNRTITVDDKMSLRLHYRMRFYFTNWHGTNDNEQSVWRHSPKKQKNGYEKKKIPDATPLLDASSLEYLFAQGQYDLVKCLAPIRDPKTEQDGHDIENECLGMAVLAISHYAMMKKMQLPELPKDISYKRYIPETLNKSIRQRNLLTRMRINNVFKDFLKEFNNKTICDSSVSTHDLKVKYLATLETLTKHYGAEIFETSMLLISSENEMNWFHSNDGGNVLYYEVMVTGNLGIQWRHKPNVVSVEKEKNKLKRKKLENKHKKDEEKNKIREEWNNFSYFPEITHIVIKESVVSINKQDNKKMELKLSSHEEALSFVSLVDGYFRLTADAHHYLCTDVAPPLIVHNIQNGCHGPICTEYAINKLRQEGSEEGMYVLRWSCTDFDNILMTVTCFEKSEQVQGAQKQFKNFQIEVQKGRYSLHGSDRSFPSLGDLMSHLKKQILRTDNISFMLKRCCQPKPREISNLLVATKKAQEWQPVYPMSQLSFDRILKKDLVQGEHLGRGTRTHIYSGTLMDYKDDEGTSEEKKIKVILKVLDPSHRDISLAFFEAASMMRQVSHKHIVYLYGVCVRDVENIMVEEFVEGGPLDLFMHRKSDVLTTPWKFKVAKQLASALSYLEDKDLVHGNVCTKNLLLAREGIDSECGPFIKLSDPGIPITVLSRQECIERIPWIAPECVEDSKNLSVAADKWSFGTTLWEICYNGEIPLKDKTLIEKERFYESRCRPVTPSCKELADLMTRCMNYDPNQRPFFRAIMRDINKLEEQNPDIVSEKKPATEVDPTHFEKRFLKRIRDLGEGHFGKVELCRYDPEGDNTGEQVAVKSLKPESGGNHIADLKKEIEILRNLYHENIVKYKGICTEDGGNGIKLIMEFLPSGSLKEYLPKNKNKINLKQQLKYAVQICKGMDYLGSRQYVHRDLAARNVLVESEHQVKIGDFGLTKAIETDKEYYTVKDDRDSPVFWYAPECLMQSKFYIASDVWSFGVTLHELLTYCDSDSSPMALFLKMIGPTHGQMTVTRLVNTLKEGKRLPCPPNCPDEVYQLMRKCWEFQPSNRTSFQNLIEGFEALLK

Compound	IC50 (Tyk2) [µM]	IC50 (JAK3) [µM]	IC50 (JAK1) [µM]	IC50 (JAK2) [µM]
Cn1cc(Nc2nccc(-c3ccc(CNCC(F)(F)F)cc3)n2)cn1 [TDM-180760, N-(1-methyl-1H-pyrazol-4-yl)-4-(4-(((2,2,2-trifluoroethyl)amino)methyl)phenyl)pyrimidin-2-amine]	0.1 to 1	≥ 10	0.1 to 1	1 to 10
Cn1cc(Nc2nccc(-c3ccc(NS(=O)(=O)Cc4ccccc4)cc3)n2)cn1 [TDM-180820, N-(4-(2-((1-methyl-1H-pyrazol-4-yl)amino)pyrimidin-4-yl)phenyl)-1-phenylmethanesulfonamide]	< 0.1	< 0.1	< 0.1	< 0.1
Cn1cc(Nc2nccc(-c3ccc(NC(=O)C4(F)CC4)nc3)n2)cn1 [TDM-180821, 1-fluoro-N-(5-(2-((1-methyl-1H-pyrazol-4-yl)amino)pyrimidin-4-yl)pyridin-2-yl)cyclopropane-1-carboxamide]	0.1 to 1	≥ 10	0.1 to 1	0.1 to 1
Cn1cc(Nc2nccc(-c3ccc(C(=O)N4CCS(=O)(=O)CC4)cc3)n2)cn1 [TDM-180749]	1 to 10	≥ 10	1 to 10	1 to 10
CCOCCS(=O)(=O)Nc1ccc(-c2ccnc(Nc3cnn(C)c3)n2)cc1 [TDM-180834, 2-ethoxyl-N-(4-(2-((1-methyl-1H-pyrazol-4-yl)amino)pyrimidin-4-yl)phenyl)ethyl-1-sulfonamide]	0.1 to 1	1 to 10	< 0.1	< 0.1
Cn1cc(Nc2nccc(-c3ccc(NS(=O)(=O)C4CC4)cc3)n2)cn1 [TDM-180767, N-(4-(2-((1-methyl-1H-pyrazol-4-yl)amino)pyrimidin-4-yl)phenyl)cyclopropanesulfo]	0.1 to 1	1 to 10	0.1 to 1	0.1 to 1
CCCCS(=O)(=O)Nc1ccc(-c2ccnc(Nc3cnn(C)c3)n2)cc1 [TDM-180832, N-(4-(2-((1-methyl-1H-pyrazol-4-yl)amino)pyrimidin-4-yl)phenyl)butane-1-sulfonamide]	0.1 to 1	1 to 10	0.1 to 1	0.1 to 1

Further lines, results first:

IC50 (Tyk2) [µM]	IC50 (JAK3) [µM]	IC50 (JAK1) [µM]	IC50 (JAK2) [µM]	Compound
0.1 to 1	1 to 10	0.1 to 1	0.1 to 1	Cn1cc(Nc2nccc(-c3ccc(C(=O)NCC#N)nc3)n2)cn1 [TDM-180762, N-(cyanomethyl)-5-(2-((1-methyl-1H-pyrazol-4-yl)amino)pyrimidin-4-yl)pyridinecarboxamide]
0.1 to 1	1 to 10	0.1 to 1	0.1 to 1	Cn1cc(Nc2nccc(-c3ccc(NC(=O)CC#N)nc3)n2)cn1 [TDM-180833, 2-cyano-N-(5-(2-((1-methyl-1H-pyrazol-4-yl)amino)pyrimidin-4-yl)pyridin-2-yl)acetamide]
1 to 10	≥ 10	0.1 to 1	0.1 to 1	Cn1cc(Nc2nccc(-c3ccc(NC(=O)C4CCC4)cc3)n2)cn1 [TDM-180813, N-(4-(2-((1-methyl-1H-pyrazol-4-yl)amino)pyrimidin-4-yl)phenyl)cyclobutanemethyl]
